Source: article PMC5082805 (PLoS ONE, 2016)
Like-named read-outs stand apart in the source and are kept apart here. Where a SMILES comes first, the peptide text is derived from it. Bridges are numbered along the chain shown (N, C = ends). [ ]: non-standard residue; d: D form. Orn(iPr) = CC(C)NCCC[C@H](N)C(=O)O; Aad = N[C@@H](CCCC(=O)O)C(=O)O

Assays:
[1] = tested on: non-atherosclerotic (NA) and atherosclerotic (A) rabbits; assay: Electrocardiogram monitoring during incremental infusion rates; type: in vivo, New Zealand White rabbits; conditions: A and NA animals, NE finding at the highest rate tested (1 μg.kg^−1.min^−1)
Protocol: (§1) Following overnight fasting, the rabbits were pre-anesthetized intramuscularly using a mixture of 15 mg/kg ketamine hydrochloride (Imalgène 500®, Rhône Mérieux, Lyon, France) and 0.7 mg/kg xylazine hydrochloride (Rompun® 2%, KVP, Kiel, Germany). The animals were tracheotomized and maintained under isoflurane anesthesia (2% v/v isoflurane in oxygen [isoflurane: AErrane®, Baxter, Maurepas, France]). The electrocardiogram was monitored continuously (Lead II derivation) during surgery. A femoral vein was cannulated using a polyvinyl chloride catheter to administer selepressin, AVP, NE, or vehicle while a carotid artery was cannulated for blood sampling. A Millar catheter-tip transducer was introduced into the femoral artery to determine arterial pressure. The animals were infused intravenously using Ringer lactate (Lavoisier, Paris, France) at 2 mL/h.
AP and electrocardiogram signals were amplified (Hugo Sachs Elektronik, March-Hugstetten, Germany) and recorded continuously using a computerized data acquisition system (Notocord, Croissy-sur-Seine, France) with acquisition rates of 500 and 1000 Hz for arterial pressure and electrocardiogram, respectively.

[2] = tested on: non-atherosclerotic (NA) and atherosclerotic (A) rabbits; assay: Hemodynamic dose-response to cumulative intravenous infusion rates in anesthetized rabbits; type: in vivo, New Zealand White rabbits; conditions: incremental i.v. infusion rates, nonlinear regression, mean ± standard error of the mean
Protocol: Thirty male New Zealand White rabbits (2.6–3.6 kg, Centre d’élevage G. Achard de la Vente, St Mars d'Egrenne, France), aged 3–4 months were individually housed in stainless steel mesh cages (500 × 600 × 400 mm) at 19–25°C and ≥35% humidity with a 12-h light/dark cycle. Each animal received Bolapin (Huttepain Bouix, Le Mans, France) at approximately 60 g/day as standard diet (non-atherosclerotic animals) or supplemented with1% cholesterol for 6 weeks to induce atherosclerosis (both n = 15). The animals were fasted for at least 12 h before clinical laboratory blood sampling, on the day of the experiment, and before scheduled necropsy. Water was supplied ad libitum. On completion of cholesterol feeding, the animals were prepared surgically to determine cardiovascular variables and infused intravenously with selepressin, arginine vasopressin (AVP), or norepinephrine (NE) at incremental rates.
as §1
A left parasternal image window was used to obtain a long-axis view, visualizing the entire ascending aorta, the innominate artery branch, and the left common carotid arteries in the same plane. Prior to dosing, all of the animals (atherosclerotic [A] and non-atherosclerotic [NA]) were examined by 2-dimensional ultrasonography using a 15-MHz linear probe. The thoracic aorta was visualized at up to 30 frames/s using a 120-μm axial resolution. An adequate penetration depth was set to several centimeters beyond the far wall of the ascending aorta. Intima-media thickness (IMT) immediately proximal to the innominate artery branch site was determined in a consistent manner in each animal using the arterial branching points as anatomic landmarks.
Doppler ultrasonographic measurements were performed using Acuson Séquoia 526 color Doppler equipment (Siemens, Saint-Denis, France). Aortic flow measurements were performed from a trans-hepatic view for perfect alignment (cos(theta) of the Doppler equation ≈1). Time velocity integrals and aortic diameter were determined for each time point by aortic echography.
Aortic blood flow (ABF, mL/min) was calculated according to the following formula: ABF (mL/min) = SV (mL/beat)×HR (beats/min) where:
• HR: heart rate • SV (stroke volume, mL) = ITVAo (cm) × SAo (cm^2) • ITVAo: Integral time velocity of the aorta evaluated from the mean of three to five consecutive velocity waveforms (i.e., three to five heartbeats) • SAo (Section of the aorta) = (π × DAo^2)/4 • DAo: Aortic diameter (cm) determined by aortic echography close to the maximal velocity measurement site.
Before treatment, the animals (n = 5 for each drug and for A vs. NA) were infused with the corresponding vehicle (10 mM acetate buffer at 9% v/v in 0.9% NaCl for selepressin, 10 mM acetate buffer at 0.3% v/v in 0.9% NaCl for AVP, and in 0.9% NaCl for NE) at 1 mL.kg^−1.h^−1 for 15 min. Selepressin acetate, AVP, and NE were administered via the femoral vein. […]

[3] = tested on: non-atherosclerotic (NA) and atherosclerotic (A) rabbits; assay: Serum biomarkers of cardiac injury (ASAT, CK, cardiac troponin I); type: in vivo, New Zealand White rabbits; conditions: at the end of administration of the highest infusion rate, n = 5
[4] = tested on: healthy dogs; conditions: cited from earlier work
[5] = healthy dogs; ref unpublished results; cited from earlier work
[6] = healthy rats; ref unpublished results; cited from earlier work
[7] = Plasma bioanalysis at the time of maximum hemodynamic effect; conditions: New Zealand White, rabbit, in vivo, iv; atherosclerotic (A) rabbits; incremental i.v. infusion; LC-MS/MS for selepressin and AVP, LC with colorimetric detection for NE; mean ± standard deviation, n = 5; SD; read-out: maximum plasma concentration
Protocol: Blood for bioanalysis was sampled from all of the animals both before the first infusion (vehicle control) and for each infusion rate at the time of maximum hemodynamic effect. Quantification of selepressin, AVP, or NE in plasma samples was performed using validated liquid chromatography with tandem mass spectrometric detection for selepressin and AVP and validated liquid chromatography with colorimetric detection for NE. All of the animals treated with selepressin, AVP, or NE were exposed in a dose-dependent manner, with no difference between A and NA animals. The maximum selepressin plasma concentrations (mean ± standard deviation) were 329±52 and 367±48 ng/mL for A and NA animals, respectively, for AVP they were 122±27 and 100±46.2 ng/mL for A and NA, respectively, and for NE they were 301±126 and 345±164 ng/mL for A and NA, respectively.

[8] = atherosclerotic (A) rabbits, SEM
[9] = non-atherosclerotic (NA) rabbits, SEM
[10] = non-atherosclerotic (NA) rabbits

Structure (SMILES) | electrocardiogram abnormalities (including ST segment elevation) [1] | Log ED50, aortic blood flow (ABF) [2, 8] | Log ED50, diastolic arterial pressure (DAP) [2, 8] | Log ED50, heart rate (HR) [2, 8] | Log ED50, mean arterial pressure (MAP) [2, 8] | Log ED50, stroke volume (SV) [2, 8] | Log ED50, aortic blood flow (ABF) [2, 9] | Log ED50, diastolic arterial pressure (DAP) [2, 9] | Log ED50, heart rate (HR) [2, 9] | Log ED50, mean arterial pressure (MAP) [2, 9] | Log ED50, stroke volume (SV) [2, 9] | Log ED50, systolic arterial pressure (SAP) [2, 9] | serum aspartate aminotransferase activity vs baseline ([3]; atherosclerotic (A) rabbits) | serum aspartate aminotransferase activity vs baseline [3, 10] | coronary ischemic liability [4] | half-life [5] [min] | half-life [6] | Cmax [7] [ng/mL] | Log ED50, systolic arterial pressure (SAP) [2, 8] | Log ED50, mean arterial pressure (MAP) [2, 10]
NC[C@H](O)c1ccc(O)c(O)c1 [NE, norepinephrine] | Some premature ventricular beats | −6.2±0.7 log(ng.kg^-1.min^-1) | −5.8±0.4 log(ng.kg^-1.min^-1) | −7.0 ±1.2 log(ng.kg^-1.min^-1) | −5.7±0.3 log(ng.kg^-1.min^-1) | −5.4±0.4 log(ng.kg^-1.min^-1) | −6.5±0.4 log(ng.kg^-1.min^-1) | −6.0±0.3 log(ng.kg^-1.min^-1) | −6.9±0.9 log(ng.kg^-1.min^-1) | −6.1±0.3 log(ng.kg^-1.min^-1) | −6.5±0.4 log(ng.kg^-1.min^-1) | −6.1±0.2 log(ng.kg^-1.min^-1) |  |  |  |  |  |  |  | 
CC[C@H](C)[C@@H]1NC(=O)[C@H](Cc2ccccc2)NC(=O)[C@@H](N)CSSC[C@@H](C(=O)N2CCC[C@H]2C(=O)N[C@@H](CCCNC(C)C)C(=O)NCC(N)=O)NC(=O)[C@H](CC(N)=O)NC(=O)[C@H](CCCC(N)=O)NC1=O [Selepressin, selepressin] (H-CFI[Aad](NH2)NCP[Orn(iPr)]G-NH2; disulfide 1-6) | No electrocardiogram abnormalities |  |  |  |  |  |  |  |  |  |  |  | not significantly different from baseline | not significantly different from baseline | no relevant coronary ischemic liability | ~30 | approximately 20 min | 329 ± 52 |  | 
NC(=O)CC[C@@H]1NC(=O)[C@H](Cc2ccccc2)NC(=O)[C@H](Cc2ccc(O)cc2)NC(=O)[C@@H](N)CSSC[C@@H](C(=O)N2CCC[C@H]2C(=O)N[C@@H](CCCN=C(N)N)C(=O)NCC(N)=O)NC(=O)[C@H](CC(N)=O)NC1=O [AVP, arginine vasopressin] | No electrocardiogram abnormalities | −8.4±0.2 log(ng.kg^-1.min^-1) | −8.7±1.1 log(ng.kg^-1.min^-1) | −8.5±0.5 log(ng.kg^-1.min^-1) | −8.6±1.4 log(ng.kg^-1.min^-1) | −7.9±5.1 log(ng.kg^-1.min^-1) | −8.1±0.5 log(ng.kg^-1.min^-1) | −10.0±7.5 log(ng.kg^-1.min^-1) | −8.6±0.2 log(ng.kg^-1.min^-1) |  | −7.5±5.9 log(ng.kg^-1.min^-1) | −6.6±1.9 log(ng.kg^-1.min^-1) | not significantly different from baseline | not significantly different from baseline |  |  |  | 122 ± 27 | −8.6±3.2 log(ng.kg^-1.min^-1) | No fit
